In article PMC11676883, “Coumarins and Hesperetin Inhibit Human Respiratory Syncytial Virus Infection” (International Journal of Molecular Sciences, 2024):
Values joined by “and” are separate entries in the source; they are usually repeats but may differ in a detail not shown here. Equal values may be shown once. “Also recorded” adds a separate entry of the source. Read-outs that look alike come from different tables or passages of the source.

Assays:
RSV-luc (rA2-Rluc) [1] = settings: A549 cells; for inhibition of RSV-luc (result in words): not encapsulated, luciferase RLU; for Selectivity Index (SI): from CC50 and IC50
A549 cells [2] = experiment: MTT cytotoxicity assay on A549 cells; settings: A549 cells
[3] = tested on: rgRSV (recombinant green fluorescent protein-expressing RSV, strain A2); experiment: Inhibition test on rgRSV-infected HEp-2 cells (GFP foci); settings: 24-72 h, coumarin, esculin, umbelliferone 300 µM, esculetin 150 µM, 4-methyl 150 µM
RSV-luc (rA2-Rluc) [4] = experiment: Inhibition assay of β-cyclodextrin-encapsulated compounds on differentiated HBE cultures inoculated with RSV-luc; settings: for inhibition compared with the PC (result in words) / mean difference vs positive control: encapsulated; for mean difference vs positive control / decrease in RSV infection: RSV-luc; for decrease in RSV infection: encapsulated with β-cyclodextrin, 48 h
A549 cells [5] = settings: human, 48 h
[6] = MTT cytotoxicity assay on A549 cells; settings: human
RSV-luc (rA2-Rluc) [7] = experiment: microbe, parasite or virus in culture; settings: human respiratory syncytial virus, A549, read-out: IC50 (concentration inhibiting 50% viral replication)
influenza virus = tested on: influenza virus; design: method as in PMID 20092255; settings: plaque reduction assay, cited from earlier work
[8] = MTT, 24 h, modified umbelliferones

Row | Compound | viral inhibition at 24 h (RSV-luc (rA2-Rluc) [1]; RSV-luc) | viral inhibition at 48 h (RSV-luc (rA2-Rluc) [1]; RSV-luc) | inhibition of RSV-luc (result in words) (RSV-luc (rA2-Rluc) [1]) | concentration at which the cells were 80% viable (A549 cells [2]; MTT, 48 h) [µM] | inhibition of rgRSV (result in words) [3] | inhibition compared with the PC (result in words) (RSV-luc (rA2-Rluc) [4]) | concentration at which the cells were 80% viable (A549 cells [5]) [µM] | Selectivity Index (SI) (RSV-luc (rA2-Rluc) [1]) | CC50 [6] [mM] | IC50 (RSV-luc (rA2-Rluc) [7]) [mM] | further results
1 | 5,7-Dihydroxycoumarin-4-methylcoumarin [4-methyl esculetin] | about 40% | inhibition doubling | reduced luciferase gene expression | 75 | inhibited rgRSV effectively | no significant inhibition | – | – | – | – | IC50 (RSV-luc (rA2-Rluc) [1]; read-out: IC50 (concentration inhibiting 50% viral replication), RSV-luc): 0.07 mM; CC50 (A549 cells [2]; read-out: CC50 (concentration causing 50% cytotoxicity), MTT, extrapolated from CC90 and CC100): 1.04 mM
2 | O=c1ccc2ccccc2o1 [Coumarin, 1,2 Benzopyrone] | – | – | did not show inhibition; also recorded: no reduction in infection | – | did not | – | 300 | 2.16 | 3.56 | 1.65 | mean difference vs positive control (RSV-luc (rA2-Rluc) [4]): 19,333,333 RLU
3 | O=c1ccc2cc(O)c(O)cc2o1 [Esculetin, 6,7-Dihydroxycoumarin] | approximately 50% | 70% | reduced luciferase gene expression | – | inhibited rgRSV effectively | – | 125 | 7.56 | 1.41 | 0.18 | decrease in RSV infection (RSV-luc (rA2-Rluc) [4]): ~15%; mean difference vs positive control (RSV-luc (rA2-Rluc) [4]): 12,600,000 RLU
4 | O=c1ccc2cc(O[C@@H]3O[C@H](CO)[C@@H](O)[C@H](O)[C@H]3O)c(O)cc2o1 [Esculin, 6,7-Dihydroxycoumarin-6-glucoside] | – | – | did not show inhibition | 300 | did not | no significant inhibition | – | 1.21 | 1.93 | 1.59 | –
5 | COc1ccc(C2CC(=O)c3c(O)cc(O)cc3O2)cc1O (stereo not drawn) [Hesperetin, 3′,5,7-Trihydroxy-4′-methoxyflavanone] | 57% | not maintained | reduced luciferase gene expression | – | – | no significant inhibition | 300 | 7.39 | 2.67 | 0.36 | decrease in RSV infection (RSV-luc (rA2-Rluc) [4]): ~7% and 7.5%
6 | CN[C@@H]1C[C@H]2O[C@@](C)([C@@H]1OC)n1c3ccccc3c3c4c(c5c6ccccc6n2c5c31)C(=O)NC4 [Staurosporine, reference compound] | – | – | – | – | – | – | – | – | – | – | cells unavailable (A549 cells [2]; Staurosporine 1 mM, 48 h): 50%
7 | O=c1ccc2ccc(O)cc2o1 [Umbelliferone, 7-Hydroxycoumarin] | – | – | did not show inhibition | 300 | did not | no significant inhibition | – | 0.46 | 2.4 | 5.14 | –
8 | CC(=O)Oc1ccc2ccc(=O)oc2c1 [acetylated umbelliferone, 7-Acetoxycoumarin] | – | – | – | – | – | – | – | – | – | – | concentration that resulted in >80% viable cells (A549 cells [2]; [8]): 20 µM; cytotoxicity compared (result in words) (A549 cells [2]; [8]): higher cytotoxicity than prenylated umbelliferone
9 | O=c1ccc2ccc3occc3c2o1 [angelicin] | – | – | – | – | – | – | – | – | – | – | reduction of influenza virus infection (influenza virus; 20 nM): 50%; reduction of influenza virus infection (result in words) (influenza virus; 100 nM): completely
10 | OC[C@H]1O[C@@H]2O[C@H]3[C@H](O)[C@@H](O)[C@@H](O[C@H]4[C@H](O)[C@@H](O)[C@@H](O[C@H]5[C@H](O)[C@@H](O)[C@@H](O[C@H]6[C@H](O)[C@@H](O)[C@@H](O[C@H]7[C@H](O)[C@@H](O)[C@@H](O[C@H]8[C@H](O)[C@@H](O)[C@@H](O[C@H]1[C@H](O)[C@H]2O)O[C@@H]8CO)O[C@@H]7CO)O[C@@H]6CO)O[C@@H]5CO)O[C@@H]4CO)O[C@@H]3CO [β-cyclodextrin] | – | – | – | – | – | – | – | – | – | – | decrease of the available cells (A549 cells [5]): about 5%
